Data published in ChEMBL document CHEMBL1201862, “PubChem BioAssay data set” (2004).
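Compound exposure: 48 hours, 5 concentrations, 96-well plates. Here, GI50 denotes the concentration required for 50% inhibition of growth.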 Activity calls are given as the source filed them. No stated cut-off is given here; in the data, active = GI50 up to about 1.1 µM and inactive = higher.

How the values were obtained:
Test in all cases: inhibition of tumour cell growth, NCI panel, 48 h
DMS-273 = tested on: DMS-273
MDA-MB-435 = tested on: MDA-MB-435
HCC 2998 = tested on: HCC 2998
SK-OV-3 = tested on: SK-OV-3
SK-MEL-2 = tested on: SK-MEL-2
SF-539 = tested on: SF-539
OVCAR-4 = tested on: OVCAR-4
HCT-116 = tested on: HCT-116
MOLT-4 = tested on: MOLT-4
PC-3 = tested on: PC-3
CAKI-1 = tested on: CAKI-1
HOP-18 = tested on: HOP-18
SNB-19 = tested on: SNB-19
DMS-114 = tested on: DMS-114
UACC-62 = tested on: UACC-62
SNB-75 = tested on: SNB-75
SF-295 = tested on: SF-295
HL-60 = tested on: HL-60
NCI/ADR-RES = tested on: NCI/ADR-RES
K562 = tested on: K562

Measured: GI50

O=C(O)CN(CC(=O)O)Cc1cc(C#Cc2ccc(C#Cc3ccccc3)cc2)cc(CN(CC(=O)O)CC(=O)O)n1
inactive: DMS-273 7.66 µM | MDA-MB-435 22.8 µM | HCC 2998 4.63 µM | SK-OV-3 56 µM | SK-MEL-2 29.2 µM | SF-539 20.7 µM | OVCAR-4 10.2 µM | HCT-116 8.87 µM | MOLT-4 8.91 µM | PC-3 4.12 µM | CAKI-1 10.6 µM | HOP-18 33.4 µM | SNB-19 5.75 µM | DMS-114 13.8 µM | UACC-62 12.4 µM | SNB-75 31.6 µM | SF-295 27.4 µM | HL-60 12.9 µM | NCI/ADR-RES 12.7 µM | K562 33 µM

C=CCC12CC(=O)CCC1c1ccc(OC)cc1C2=O (centres undefined)
inactive: DMS-273 > 100 µM | HCC 2998 > 100 µM | SK-OV-3 > 100 µM | SK-MEL-2 > 100 µM | SF-539 > 100 µM | OVCAR-4 > 100 µM | HCT-116 > 100 µM | MOLT-4 > 100 µM | CAKI-1 > 100 µM | HOP-18 > 100 µM | SNB-19 > 100 µM | DMS-114 > 100 µM | UACC-62 > 100 µM | SNB-75 > 100 µM | SF-295 > 100 µM | HL-60 > 100 µM | K562 > 100 µM

COc1cc(C)c(C)c(OC(=O)c2c(C)c(C)c(OC)c(C)c2OC)c1C
inactive: DMS-273 3.94 µM | HCC 2998 13.8 µM | SK-OV-3 7.19 µM | SK-MEL-2 5.04 µM | SF-539 14.1 µM | OVCAR-4 10.3 µM | HCT-116 4.1 µM | MOLT-4 9.31 µM | CAKI-1 7.26 µM | HOP-18 10.4 µM | SNB-19 15.4 µM | DMS-114 3.29 µM | UACC-62 6.71 µM | SNB-75 4.04 µM | SF-295 3.92 µM | HL-60 10 µM | K562 3.83 µM
